Experiments:
[1] = test system: LPS-induced vascular leakage; experiment: Reduction of LPS-induced vascular leakage in a mouse model (BALF protein); conditions: FIGS. 1A, 1B and 1C; LPS aerosol mouse model
[2] = test system: virus Influenza A (strain: PR8/34/H1N1); experiment: Reduction of H1N1-induced vascular leakage in a mouse model (BALF Evans blue); format: in vivo, Mice; conditions: 3 mg/kg p.o., 2 h after inoculation and once daily day 1 to day 4; day 6 after inoculation
Protocol: Mice were inoculated intranasally with 200 PFU (Plaque Formation Unit) of virus Influenza A (strain: PR8/34/H1N1). […] was given at 3 mg/kg p.o. 2 h after inoculation and once daily from day 1 to day 4. Evans blue was injected intravenously on day 6, 30 min prior to the euthanasia. […] The supernatant was collected for the measurement of Evans blue by spectrophotometry at the absorbance of 620 nm
At day 6 after inoculation, H1N1 induced lung vascular leakage characterized by an increase in Evans blue extravasation from the blood to the BALF.

[3] = Phase 1 study, healthy adults; cited from earlier work
[4] = test system: TRPC6; conditions: lung tissue of IPAH patients; cited from earlier work
[5] = test system: PASMC; conditions: cited from earlier work

COc1cc(C(=O)N2CCC(c3ccc(N)nn3)CC2)ncc1Oc1ccc(F)cc1 [Compound 17, [4-(6-Amino-pyridazin-3-yl)-piperidin-1-yl]-[5-(4-fluoro-phenoxy)-4-methoxy-pyridin-2-yl]-methanone]
pulmonary vascular leakage [1]: significantly reduces pulmonary vascular leakage | reduction of BALF Evans blue [2]: 24%

COc1cc(C(=O)N2CCC(c3ccc(N)nn3)CC2)ncc1Oc1ccc(F)cc1 [BI 764198]
tolerability [3]: well tolerated

COc1ccccc1Oc1c(NS(=O)(=O)c2ccc(C(C)(C)C)cc2)nc(-c2ncccn2)nc1OCCO [bosentan]
expression of TRPC6 [4]: decreases expression of TRPC6 | proliferation of PASMC [5]: decreases proliferation of PASMC

Reference: patent US20230149393A1, “INHIBITORS OF TRPC6 FOR TREATING RESPIRATORY CONDITIONS” (Boehringer Ingelheim International GmbH, priority 2020, published 2023)
